Data from patent US11498915B2, “TrkA Inhibitor” (Eli Lilly and Company, priority 2020, dated 2022).
Values belong to the molecule of their own block, whether it stands above or below them.

What was measured:
[1] = molecular target: T1, hTrkA (Homo sapiens, UniProt P04629); experiment: hTrk kinase TR-FRET assay (headed Binding Assays), hTrkA kinase domain; type: biochemical; parameters: hTrkA, aa: 441-796; settings: hTrkA kinase domain aa 441-796, N = 4, read-out: Relative IC50 hTrkA, Binding Assays
Description: (§1) Human Tropomyosin Receptor Kinase (hTrkA, hTrkB, hTrkC) Assays to Examine hTrk Kinase Inhibitors
(§2) The reaction of non-phosphorylated hTrk kinase domains (hTrkA, aa: 441-796, hTrkB, aa: 526-838 or hTrkC, aa: 510-825) with a fluorescein-labeled poly-GT substrate (poly-GT, Invitrogen) generates a fluorescein-labeled phosphorylated product. Binding of the terbium-labeled antibody (Invitrogen) to the phosphorylated tyrosine product brings the terbium and fluorescein into proximity, resulting in an increase in time-resolved fluorescence resonance energy transfer (TR-FRET). In the presence of an inhibitor, formation of phosphorylated product is reduced, and the TR-FRET value is decreased.
(§3) Inhibition of hTrk kinase activity: The activity of human tropomyosin receptor hTrk kinase is quantitated using TR-FRET technology (Invitrogen) as per vendor instructions. Briefly, compounds for dose-response studies are serially diluted in dimethyl sulfoxide (1:2 for 20 concentrations) using an acoustic dispensing instrument Echo Access (Labcyte) and dispensed into ProxiPlate-384 plus plates (PerkinElmer). […] EDTA and terbium-labeled antibody are added and plates are incubated at RT for one hour after which the TR-FRET signal is detected using an ENVISION® plate reader (Perkin-Elmer). The ratio of fluorescence at 520 to 495 nm is calculated. […]
Target sequence in this assay (P04629 441-796): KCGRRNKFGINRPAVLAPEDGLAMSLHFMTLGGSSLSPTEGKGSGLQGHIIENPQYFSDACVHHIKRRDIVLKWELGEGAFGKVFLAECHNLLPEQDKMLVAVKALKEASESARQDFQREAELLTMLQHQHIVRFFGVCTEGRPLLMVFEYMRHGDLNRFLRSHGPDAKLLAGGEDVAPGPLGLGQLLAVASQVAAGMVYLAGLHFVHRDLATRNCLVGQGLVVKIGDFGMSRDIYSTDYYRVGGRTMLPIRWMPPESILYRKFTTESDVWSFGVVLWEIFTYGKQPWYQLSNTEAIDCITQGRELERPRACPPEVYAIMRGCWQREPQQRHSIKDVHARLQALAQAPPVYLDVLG

[2] = molecular target: T2, hTrkB (Homo sapiens, UniProt Q16620); experiment: hTrk kinase TR-FRET assay (headed Binding Assays), hTrkB kinase domain; type: biochemical; parameters: hTrkB, aa: 526-838; settings: hTrkB kinase domain aa 526-838, N = 1, read-out: Relative IC50 hTrkB, Binding Assays
Description: as §1, §2, §3
Target sequence in this assay (Q16620 510-822): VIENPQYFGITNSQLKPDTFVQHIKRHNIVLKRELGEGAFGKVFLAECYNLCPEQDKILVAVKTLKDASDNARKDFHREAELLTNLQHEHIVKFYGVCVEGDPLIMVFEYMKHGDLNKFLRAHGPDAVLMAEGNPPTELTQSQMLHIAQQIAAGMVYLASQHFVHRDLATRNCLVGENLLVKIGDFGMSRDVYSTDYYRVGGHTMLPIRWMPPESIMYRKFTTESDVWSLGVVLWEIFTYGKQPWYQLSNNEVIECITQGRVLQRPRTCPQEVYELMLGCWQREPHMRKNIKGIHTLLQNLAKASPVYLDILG

[3] = molecular target: T3, hTrkC (Homo sapiens, UniProt Q16288); experiment: hTrk kinase TR-FRET assay (headed Binding Assays), hTrkC kinase domain; type: biochemical; parameters: hTrkC, aa: 510-825; settings: hTrkC kinase domain aa 510-825, N = 1, read-out: Relative IC50 hTrkC, Binding Assays
Description: as §1, §2, §3
Target sequence in this assay (Q16288 510-825 isoform Q16288-3): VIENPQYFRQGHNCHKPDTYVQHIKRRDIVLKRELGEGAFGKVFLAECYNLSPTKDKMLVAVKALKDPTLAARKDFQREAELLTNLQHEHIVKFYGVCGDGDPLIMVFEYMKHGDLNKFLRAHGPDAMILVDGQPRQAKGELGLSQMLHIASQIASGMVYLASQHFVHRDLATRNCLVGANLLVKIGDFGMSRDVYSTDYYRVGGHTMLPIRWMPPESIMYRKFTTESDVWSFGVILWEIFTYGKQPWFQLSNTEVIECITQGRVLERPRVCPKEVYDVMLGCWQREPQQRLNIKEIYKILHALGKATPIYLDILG

[4] = molecular target: T1, hTrkA; experiment: PathHunter cell-based assay, inhibition of SH2 domain protein recruitment, hTrkA-p75 U2OS cells; parameters: host or cells: U2OS (human bone osteosarcoma epithelial cells), PathHunter hTrkA-p75
Description: (§4) In Vitro Inhibition of SH2 Domain Protein Recruitment in Human Bone Osteosarcoma Epithelial Cells by Human Tropomyosin Receptor Kinase (hTrk) Inhibitors
(§5) Activation of hTrkA, TrkB or TrkC is examined using PathHunter® (DiscoverX) enzyme fragment complementation technology. In this approach, one fragment of β-galactosidase (β-gal) ProLink (PK) is fused to the C-terminal of the Trk receptor and co-expressed with a phosphotyrosine SH2 domain protein fused with the remaining fragment of β-gal, Enzyme Acceptor (EA), in human Bone Osteosarcoma Epithelial (hU2OS) cells also expressing the p75 neurotrophic receptor (DiscoverX). Activation of hTrk receptors by agonists results in receptor phosphorylation. The SH2-EA fusion protein binds the phosphorylated hTrk receptor resulting in complementation of PK and EA to form an active β-gal enzyme. β-gal enzymatic activity is quantitatively measured using a chemiluminescent substrate in the PathHunter® detection kit (DiscoverX). […]
(§6) Inhibition of hTrk kinase activity: The activity of hTrkA and hTrkC kinase is quantitated using Pathhunter® technology (DiscoverX) as per vendor instructions.
(§7) Briefly, on the assay day, compounds for dose-response studies are serially diluted in dimethyl sulfoxide (1:3 for 10 concentrations) using an acoustic dispensing instrument Echo Access (Labcyte) and dispensed into cell plates that are subsequently incubated at room temperature (RT) for one hour. […] Pathhunter® detection reagents (DiscoverX) are added and plates are read in an ENVISION® plate reader (Perkin-Elmer) at 700 nm after 1 h incubation at RT in the dark. […]
(§8) Data Analysis: The data are converted into % Inhibition and relative IC50 values are calculated from the top-bottom range of the concentration response curve using a four-parameter logistic curve fitting program (GENEDATA SCREENER® v13.0.5) with the equation Y=Bottom+(Top-Bottom)/(1+10^((Log IC50−X)*HillSlope)). […]
Target sequence in this assay (P04629 33-796): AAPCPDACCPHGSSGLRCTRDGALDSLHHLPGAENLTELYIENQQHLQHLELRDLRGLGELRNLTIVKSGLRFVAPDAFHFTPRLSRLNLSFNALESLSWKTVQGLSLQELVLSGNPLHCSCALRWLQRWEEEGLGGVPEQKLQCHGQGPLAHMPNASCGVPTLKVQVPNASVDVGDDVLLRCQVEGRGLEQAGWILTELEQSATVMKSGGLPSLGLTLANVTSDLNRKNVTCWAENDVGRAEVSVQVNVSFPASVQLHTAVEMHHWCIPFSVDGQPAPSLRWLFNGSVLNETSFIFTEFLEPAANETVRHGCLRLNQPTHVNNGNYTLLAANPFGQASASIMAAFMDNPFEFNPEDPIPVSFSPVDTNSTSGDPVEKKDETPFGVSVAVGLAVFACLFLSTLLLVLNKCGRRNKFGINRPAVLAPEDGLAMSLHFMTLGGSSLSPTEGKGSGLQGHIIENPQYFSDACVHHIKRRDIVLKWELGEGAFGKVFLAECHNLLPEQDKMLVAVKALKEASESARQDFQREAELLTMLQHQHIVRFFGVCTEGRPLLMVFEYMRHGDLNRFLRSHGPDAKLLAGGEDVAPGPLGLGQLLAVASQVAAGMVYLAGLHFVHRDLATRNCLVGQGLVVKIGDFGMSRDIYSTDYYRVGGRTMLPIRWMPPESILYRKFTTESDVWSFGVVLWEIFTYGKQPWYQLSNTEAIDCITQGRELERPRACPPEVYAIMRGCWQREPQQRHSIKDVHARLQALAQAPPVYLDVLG

[5] = molecular target: T2, hTrkB; experiment: PathHunter cell-based assay, inhibition of SH2 domain protein recruitment, hTrkB-p75 U2OS cells; parameters: host or cells: U2OS (human bone osteosarcoma epithelial cells), PathHunter hTrkB-p75
Description: as §4, §5, §6, §7, §8
Target sequence in this assay (Q16620 32-822): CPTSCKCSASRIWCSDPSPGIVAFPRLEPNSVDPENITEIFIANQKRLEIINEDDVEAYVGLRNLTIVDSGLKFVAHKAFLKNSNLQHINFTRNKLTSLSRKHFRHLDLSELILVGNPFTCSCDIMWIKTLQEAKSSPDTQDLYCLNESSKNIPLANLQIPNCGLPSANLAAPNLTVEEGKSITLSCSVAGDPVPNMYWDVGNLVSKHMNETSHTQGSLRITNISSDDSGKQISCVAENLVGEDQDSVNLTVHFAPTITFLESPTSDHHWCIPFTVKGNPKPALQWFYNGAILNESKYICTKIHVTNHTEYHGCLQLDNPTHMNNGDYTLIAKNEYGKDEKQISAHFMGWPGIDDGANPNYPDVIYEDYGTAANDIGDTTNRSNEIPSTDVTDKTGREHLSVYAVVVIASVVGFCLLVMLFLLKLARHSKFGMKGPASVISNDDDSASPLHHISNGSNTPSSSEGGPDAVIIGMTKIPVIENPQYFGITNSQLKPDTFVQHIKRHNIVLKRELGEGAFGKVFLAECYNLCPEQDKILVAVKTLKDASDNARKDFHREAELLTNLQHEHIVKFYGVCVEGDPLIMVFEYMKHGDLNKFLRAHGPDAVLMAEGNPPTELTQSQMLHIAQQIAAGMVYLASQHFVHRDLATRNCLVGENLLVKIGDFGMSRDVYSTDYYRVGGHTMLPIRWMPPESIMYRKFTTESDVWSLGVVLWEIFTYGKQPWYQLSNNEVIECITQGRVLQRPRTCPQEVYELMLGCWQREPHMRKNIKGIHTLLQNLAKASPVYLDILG

[6] = molecular target: T3, hTrkC; experiment: PathHunter cell-based assay, inhibition of SH2 domain protein recruitment, hTrkC-p75 U2OS cells; parameters: host or cells: U2OS (human bone osteosarcoma epithelial cells), PathHunter hTrkC-p75
Description: as §4, §5, §6, §7, §8
Target sequence in this assay (Q16288 32-839): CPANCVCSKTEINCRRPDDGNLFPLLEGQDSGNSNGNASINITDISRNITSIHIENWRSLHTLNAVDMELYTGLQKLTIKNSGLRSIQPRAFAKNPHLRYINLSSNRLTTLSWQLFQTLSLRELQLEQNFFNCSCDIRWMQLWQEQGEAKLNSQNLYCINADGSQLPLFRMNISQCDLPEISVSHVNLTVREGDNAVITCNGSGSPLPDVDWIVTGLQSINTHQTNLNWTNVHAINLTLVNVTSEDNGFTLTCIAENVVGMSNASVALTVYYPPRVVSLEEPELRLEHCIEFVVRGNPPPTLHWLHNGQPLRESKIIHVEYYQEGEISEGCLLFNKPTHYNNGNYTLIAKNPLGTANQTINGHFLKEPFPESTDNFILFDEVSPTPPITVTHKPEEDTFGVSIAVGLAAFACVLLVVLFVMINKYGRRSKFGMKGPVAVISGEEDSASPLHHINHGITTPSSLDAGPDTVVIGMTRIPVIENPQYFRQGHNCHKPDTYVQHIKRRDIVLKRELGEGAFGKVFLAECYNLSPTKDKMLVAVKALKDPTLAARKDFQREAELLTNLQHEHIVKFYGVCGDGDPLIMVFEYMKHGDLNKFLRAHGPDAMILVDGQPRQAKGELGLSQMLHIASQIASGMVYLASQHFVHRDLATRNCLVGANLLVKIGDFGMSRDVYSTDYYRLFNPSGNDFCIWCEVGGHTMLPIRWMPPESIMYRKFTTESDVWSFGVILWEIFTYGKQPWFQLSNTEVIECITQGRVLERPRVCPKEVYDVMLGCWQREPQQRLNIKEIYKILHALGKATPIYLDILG

[7] = molecular target: Trk A (Homo sapiens, UniProt P04629); experiment: Trk A IC50 values listed in Table 2 of U.S. Pat. No. 9,815,846; settings: 14 divided by 0.069; phenyl ring versus pyridine ring
Trk A, sequence (P04629 33-796, species assumed): as the sequence (P04629 33-796) above

[8] = Table 2 comparative data, Example 1 values are the PathHunter values of Table 1, read-out: hTrkA IC50
[9] = Table 2 comparative data, Example 1 values are the PathHunter values of Table 1, read-out: hTrkB IC50
[10] = Table 2 comparative data, Example 1 values are the PathHunter values of Table 1, read-out: hTrkC IC50

IC50 [1]: 1.09 nM
IC50 [2]: > 4290 nM
IC50 [3]: 8360 nM
IC50 ([4]; hU2OS hTrkA-p75 cells, hNGF 27 ng/ml, N = 32, read-out: Relative IC50 hTrkA, PathHunter cell-based assay): 1.24 nM
IC50 ([5]; hU2OS hTrkB-p75 cells, hBDNF 20 ng/ml, N = 25, read-out: Relative IC50 hTrkB, PathHunter cell-based assay): 6700 nM
IC50 ([6]; hU2OS hTrkC-p75 cells, hNT-3 29 ng/ml, N = 24, read-out: Relative IC50 hTrkC, PathHunter cell-based assay): 9010 nM
Structure (SMILES): Cn1ccc(-c2cc(C(=O)Nc3cncc(C(N)=O)c3-c3ccccn3)c(F)cc2C(F)(F)F)n1 [Example 1, 5-[[2-fluoro-5-(1-methylpyrazol-3-yl)-4-(trifluoromethyl)benzoyl]amino]-4-(2-pyridyl)pyridine-3-carboxamide]

IC50 [4, 8]: 1.55 nM
IC50 [5, 9]: 713 nM
IC50 [6, 10]: 452 nM
Structure (SMILES): Cn1ccc(-c2cc(C(=O)Nc3cc(C(N)=O)cnc3-c3ccccc3)ccc2C(F)(F)F)n1 [Example 89 of US Patent No. 9815846]

IC50 [4, 8]: 11.1 nM
IC50 [5, 9]: > 47900 nM
IC50 [6, 10]: 37800 nM
Structure (SMILES): Cn1ccc(-c2cc(C(=O)Nc3cc4c(nc3-c3ccccn3)CCNC4=O)c(F)cc2C(F)(F)F)n1 [Example 141 of US Patent No. 9815846]

effect on the potency at TrkA, Example 141 IC50 divided by Example 152 IC50 [7]: 202.9 fold
Structure (SMILES): Cn1ccc(-c2cc(C(=O)Nc3cc4c(nc3-c3ccccc3)CCNC4=O)c(F)cc2C(F)(F)F)n1 [Example 152]
